Experiment [1] deals with methanogenesis. The procedure:
An anoxic composting reactor was designed and constructed that comprised of a 2-liter plastic soda bottle attached to a 200 ml foil gas bag for quantitative gas analysis using gas chromatography. Composting experiments in anoxic composting reactor were conducted with 1 cup of organic food waste from kitchen waste with coffee grounds, 1 cup of leaves or grass clippings, 1 cup of shredded paper, and 4 cups of surface creek soil with 16 g of NaClO2 (9.6 g/kg soil concentration) or 4 cups of surface creek soil without NaClO2 or 4 cups of landfill cover soil with 16 g of NaClO2, or 4 cups or landfill cover soil without NaClO2.
Volumes of gas in the foil bags were estimated over a 3-week period. The gas samples were analyzed for fixed gases (hydrogen, oxygen, nitrogen, carbon monoxide, methane, and carbon dioxide) according to modified EPA Method 3C (single injection) using a gas chromatograph equipped with a thermal conductivity detector by ALS Environmental (Simi Valley, CA).

In experiment [2] the test system is methanogenesis. Here is the method:
A composting experiment was conducted in a 2-liter plastic soda bottle with 1 cup of organic food waste from kitchen waste with coffee grounds, 1 cup of leaves or grass clippings, 1 cup of shredded paper, and 4 cups of wet creek bed soil with 16 g of sodium chlorite (9.6 g/kg soil concentration) or 4 cups of wet creek bed soil without sodium chlorite. Gas produced in this experiment was collected using water displacement method. The %/Vol of methane was measured with a portable multi 4 gas detector with air gas sampling pump.
The LEL of CH4 is 5% of gas volume.
This is another data set of the same source.

Experiment [3] relates to chlorite dismutase (Cld) enzymes. The following applies: 16 g NaClO2 (30 g/kg). The procedure:
A qualitative reactor for detection of gas production was designed and constructed using: 300 mL plastic water bottle, 7-inch balloon and 3×⅛ in rubber band. The surface creek soil, deep creek soil, and landfill soil cover samples were placed in qualitative reactor with 16 g NaClO2 (30 g/kg soil concentration) and without any NaClO2 to screen for the presence of Cld enzymes by observing the inflation of balloon indicating biogas production.

The test system is the same in experiment [4]. To be noted: for balloon inflation: creek water. Here is the method: A qualitative sampling device was created using: 300 mL plastic water bottle, 7-inch balloon and 3×⅛ in rubber band. Freshwater, wet creek bed soil (alluvial soil), and dry creek bank soil samples were collected from a stream habitat (Denton Creek in Coppell, Texas). Samples were placed in a sampling device with or without sodium chlorite (0 g, 16 g, or 32 g) to screen for the presence of Cld enzymes by observing inflation of balloon.

Experiment [5] has the same test system. Here is the method:
Using water displacement method, the oxygen production and yield were calculated from 4 gm of sodium chlorite in a 300 mL wet creek bed soil sample (526 gm) placed in 500 mL Erlenmeyer flask with rubber stopper connected with rubber tubing to an inverted 1 L graduated beaker full of water and placed in a rectangular plastic tub with water.

The mark [6] stands for this setting: wet creek bed soil with 16 g NaClO2 (9.6 g/kg).

Where two headings read alike, the source gives them in different places. Where only a bound is given, the exact number is not on record here.

On to sodium chlorite [NaClO2], for which, in the experiment on methanogenesis [1] (P-value=0.037, one-tailed paired t test), the “millimoles of methane generated, creek reactors without NaClO2 compared with creek reactors with NaClO2” value is “significantly higher”. Also, the “volume of biogas produced” value with methanogenesis [1] (creek soil reactors with NaClO2, spread +/−81, P=0.009 vs without NaClO2) was 328 mL. Moreover, the “CO2 levels in gas” value in the experiment on methanogenesis [1] (landfill soil cover samples with or without NaClO2) is “lower levels of CO2”; with methanogenesis [1] (surface creek soil, 16 g NaClO2 (9.6 g/kg)), “increasing levels of CO2”. Further, in the experiment with methanogenesis [1] (surface creek soil, 16 g NaClO2 (9.6 g/kg), over a 60-hour period), the “onset of gas production” value was “immediate gas production”. Besides, the “Methane % Day 12” value with methanogenesis [2] (Volume %, 16 g NaClO2 (9.6 g/kg), Day 12) stood at 0.75%. In addition, the “Methane % Day 23” value in the experiment with methanogenesis [2] (Volume %, 16 g NaClO2 (9.6 g/kg), Day 23) came to 0%. The “Methane % Day 34” value in the experiment with methanogenesis [2] (Volume %, 16 g NaClO2 (9.6 g/kg), Day 34) was 0%. For the same substance, in the experiment with methanogenesis [2] (setting [6]), the “time at which gas production plateaued” value is on record as “about 134 hours”. The “time at which gas production was noted after set-up” value in the experiment with methanogenesis [2] (setting [6]) was “one”. Besides, in the experiment on methanogenesis [2] (setting [6]), the “time within which most of the measurable gas production occurred” value was at most 46 h. Also, the “time to rapid balloon inflation” value was at most 6 h in experiment [3] (deep creek soil); at most 6 h in experiment [3] (surface creek soil); at most 6 h in experiment [4] (alluvial creek bed soil, 16 g (0.053 g/ml) NaClO2). The balloon inflation entry is “did not show any balloon inflation” in experiment [3] (landfill cover soil); “no balloon inflation” in experiment [4] (16 g (0.053 g/ml) NaClO2, after 2 days); “no balloon inflation” in experiment [4] (32 g (0.11 g/ml) NaClO2, after 2 days). In experiment [5] (4 g NaClO2 in 526 g creek bed soil (7.6 g/kg), over a 65-hour period before plateauing), the measurable gas production was 145 mL. In addition, the “measurable volume as % of theoretical oxygen yield” value in experiment [5] (reduction of 4 grams NaClO2, calculated using the Ideal Gas Law) is given as “around 14%”.

The record behind these values is US20240286179A1, “METHODS AND COMPOSITIONS FOR WASTE MANAGEMENT SYSTEMS” (priority 2023, published 2024).
